Reference: US10611797B2, “Peptide having anticancer activity, and pharmaceutical composition and dietary supplement composition for preventing and treating cancer, both of which contain same as active ingredient” (IUCF-HYU (INDUSTRY-UNIVERSITY COOPERATION FOUNDATION …, priority 2015, dated 2020)
Where two headings read alike, the source gives them in different places.

Assays:
[1] = tested on: human mesenchymal stem cells (hMSC); experiment: MTT cell viability, human mesenchymal stem cells; conditions: increasing concentrations
MCF10A cell line = experiment: Electron microscopy of cell morphology, MCF10A; conditions: 2 μM, 24 and 48 h
Protocol: 1.5×10^6 cells of MDA-MB-231 cell line and 5×10^5 cells of MCF10A cell line were inoculated into 100 mm dishes. […] After culture for 24 and 48 h, cells were collected. The culture solution was centrifuged and surface adherent cells were collected by trypsin treatment. The collected cells were washed once with physiological saline. The cell sediment was directly treated twice with 2.5% aqueous glutaraldehyde solution (each for 10 min). Samples for electron microscopy were prepared and imaged in accordance with general methods.

[2] = tested on: BEAS2B and MCF10A normal epithelial cell lines; experiment: MTT cell viability / IC50, normal epithelial control cell lines
Protocol: (§1) Liver cancer cell lines (HepG2, Hep3B) were inoculated into 96-well plates at a density of 3000 cells/well, and then 50 μl of culture solution was added thereto. Cells were cultured at 37° C. and 5% CO2 for 1 h. […] Cells were cultured at 37° C. and 5% CO2 for 24, 48, 72, and 96 h. After completion of the culture, the remaining culture solution was removed from the well plates, the cultures were diluted with MTT solution (3-(4,5-dimethylthiazol-2-yl)-2,5-diphenyltetrazole bromide) to a final density of 500 μg/ml, and cells were cultured at 37° C. and 5% CO2 for 3 h. The remaining MTT solution was removed and 150 μl of dimethyl sulfoxide (DMSO) was added. The reaction was carried out at room temperature for 20 min. After completion of the reaction, absorbance was measured using a microplate reader.

[3] = tested on: normal cell lines (MCF10A, BEAS2B, hMSCs, mouse primary T cells); experiment: Microscopic observation of growth inhibition and apoptosis, normal cell lines; conditions: 2 μM, 48 h
Protocol: (§2) Liver cancer cell lines (HepG2, Hep3B), a human embryonic kidney cell line (293T), breast cancer cell lines (MCF-7, MDA-MB-231), blood tumor cell lines (K562, HEL, HL60), glioblastoma cell lines (U251, U373MG, U87MG), a mammary epithelial cell line (MCF10A), a lung epithelial cell line (BEAS2B), human mesenchymal stem cells (hMSCs), and mouse primary T cells (resting and activated T cells) were inoculated into 96-well plates at a density of 3,000 cells/well, supplemented with 50 μl of culture solution, and cultured at 37° C. and 5% CO2 for 1 h. […] After completion of the culture, cells were observed under an inverted phase contrast microscope and their morphological changes were imaged.

[4] = tested on: cancer cell lines (HepG2, Hep3B, 293T, MCF-7, MDA-MB-231, K562, HEL, HL60, U251, U373MG, U87MG); experiment: Microscopic observation of growth inhibition and apoptosis, cancer cell lines; assay type: cell-based, human; conditions: 2 μM, 48 h
Protocol: as §2

[5] = tested on: human embryonic stem cells (hESCs, H9); experiment: MTT cell viability, human embryonic stem cells co-cultured with MEFs; conditions: increasing concentrations; co-culture with MEFs
Description: MEF cells labeled with rhodamine were often used to distinguish them from hESC-derived cells.

MDA-MB-231 cell line = experiment: MTT assay of FITC-conjugated peptides in MDA-MB-231; assay type: cell-based, human; conditions: 0, 0.5, 1, 2, 3, 10 μM, 96 h
CP2c [6] = target: T1, CP2c (Mus musculus, UniProt Q9ERA0); experiment: DNA immunoprecipitation (DIP) assay of CP2c-DNA binding; conditions: 0.2, 0.5, and 1 μg peptide; MEL nuclear extract; α-globin promoter probe
T1 construct: 5 μg of the nuclear extract and an [α-32p] dCTP-labeled DNA probe; endogenous in cells; host or cells: MEL (murine erythroid leukemia) cells, HMBA-differentiated, nuclear extract
T1 sequence (Q9ERA0 1-502): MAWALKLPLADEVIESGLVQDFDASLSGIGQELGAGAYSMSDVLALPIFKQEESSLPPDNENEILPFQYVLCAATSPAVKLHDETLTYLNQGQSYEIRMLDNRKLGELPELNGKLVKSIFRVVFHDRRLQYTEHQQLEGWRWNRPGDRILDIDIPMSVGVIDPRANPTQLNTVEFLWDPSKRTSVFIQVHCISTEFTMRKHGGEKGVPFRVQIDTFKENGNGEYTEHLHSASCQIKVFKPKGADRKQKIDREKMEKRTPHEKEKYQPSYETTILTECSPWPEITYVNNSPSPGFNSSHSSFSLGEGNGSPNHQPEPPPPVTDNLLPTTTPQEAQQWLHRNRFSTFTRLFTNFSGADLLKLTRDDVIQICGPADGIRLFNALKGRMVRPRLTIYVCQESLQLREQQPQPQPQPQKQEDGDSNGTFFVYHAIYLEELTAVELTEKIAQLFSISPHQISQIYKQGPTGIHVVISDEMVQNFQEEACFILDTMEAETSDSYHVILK
Protocol: To analyze whether the five peptides identified in Example 1.1 bind to CP2c in cells to affect the ability of CP2c to bind to DNA, DNA immunoprecipitation (DIP) assay was performed as disclosed in another preceding research conducted by the present inventors (Kim et al., A DNA immunoprecipitation assay used in quantitative detection of in vitro DNA-protein complex binding, Analytical Biochemistry. 2013; 441: 147-151).
In summary, the differentiation of a murine erythroid leukemia (MEL) cell line was induced by treatment with 5 mM hexamethylene bisacetamide (HMBA) and, on day 2 after differentiation, a cellular nuclear extract was separated. […]
Subsequently, 5 μg of the nuclear extract and an [α-32p] dCTP-labeled DNA probe (a sequence corresponding to the common CP2c binding site present in mouse α-globin promoter and between −156 and −124 in the start codon of the α-globin gene, see the paper of Kim et al. for details of the sequence) were allowed to react with a binding buffer (4% glycerol, 10 mM Tris-HCl, 1 mM DTT, 1 mM EDTA, and 0.1% NP-40) for 15 min, and gradually increasing amounts (0.2, 0.5, and 1 μg) of the identified CP2c binding peptides (Peptide 5, Peptide 8, Peptide 13, Peptide 21, and Peptide 31) were added thereto. […] The CP2c protein was removed from the DNA probe and the remaining amount of the DNA probe was measured using a scintillation counter. […]

CP2c [7] = experiment: Direct ELISA of GST-fusion mutant CP2c proteins binding to peptide; conditions: 19 Ala mutants of CP2c 306-396 region; detected with biotin-tagged Peptide 5-2CB
Description: To support this assumption, a CP2c protein region with which Peptide 5-2C interacts and amino acids in the region directly binding to Peptide 5-2C need to be identified. Thus, an attempt was made to obtain mutant CP2c proteins in which polar amino acids present in the CP2c region binding with Peptide 5 shown in FIG. 1 were substituted with Ala and analyze the binding of the mutant CP2c proteins with Peptide 5-2C by enzyme-linked immunosorbent assay (ELISA). To facilitate this analysis, Peptide 5-2CB was synthesized in which biotin tag is bonded to the C-terminal Pro residue of Peptide 5-2C. To confirm whether Peptide 5-2CB induces cancer cell-specific growth interruption and apoptosis, like Peptide 5-2C, MTT assay was conducted on two different batches of Peptide 5-2CB in MDA-MB-231 cell line and MCF7 cell line by the same method as in Example 5.1. IC50 values were also calculated from the results of MTT assay. To obtain 19 mutant CP2c proteins in which polar amino acids present in the CP2c region binding with Peptide 5-2C were substituted with Ala, oligonucleotides having sequences encoding the corresponding mutant amino acids were synthesized and site-directed mutagenesis was carried out. The base sequences encoding the mutant CP2c genes were cloned into the pGEX4 vector and mutant GST-fusion CP2c proteins were purified using beads bound with antibody against GST-tag. […]

[8] = tested on: BEAS2B and MCF10A normal epithelial cell lines
Protocol: as §1

[9] = tested on: 293T and HepG2 cell lines; experiment: MTT cell viability with Peptide 5-2D, 293T and HepG2; assay type: cell-based, human; conditions: increasing concentrations
Protocol: as §1

[10] = tested on: breast cancer cell lines (MCF7, MDA-MB-231); experiment: MTT cell viability, breast cancer cell lines; assay type: cell-based, human; conditions: increasing concentrations
Protocol: as §1

[11] = tested on: colon cancer cell lines (HCT116, HT29); experiment: MTT cell viability with Peptide 5-2D, colon cancer cell lines; assay type: cell-based, human; conditions: increasing concentrations
Protocol: as §1

[12] = tested on: human blood cancer cell lines (U937, Jurkat, HL60, HEL); experiment: MTT cell viability with Peptide 5-2D, human blood cancer cell lines; assay type: cell-based; conditions: increasing concentrations
Protocol: as §1

[13] = tested on: glioblastoma cell lines (U343, U87MG); experiment: MTT cell viability with Peptide 5-2D, glioblastoma cell lines; assay type: cell-based, human; conditions: increasing concentrations
Protocol: as §1

Compound: CCOc1ccccc1C1CC(=O)Nc2cc3c(cc21)OCO3 (centres unmarked) [FQI1, Factor Quinolinone Inhibitor 1]
- cytotoxicity (MTT) in hMSC [1]: concentration-dependent cytotoxicity
- intracellular structural abnormalities in MCF10A (electron microscopy) (MCF10A cell line): considerable nuclear disruption was observed at 48 h
- growth inhibition and apoptosis induction of normal control cell lines (IC50 calculation) ([2]; 48 h, MTT): inhibited cell growth and induced apoptosis
- cytotoxicity (MTT) in MCF10A and BEAS2B ([2]; increasing concentrations up to 10 μM): concentration-dependent cytotoxicity
- effect on normal cell lines (microscopy) [3]: inhibited the growth of the normal cell lines
- growth inhibition and apoptosis induction of cancer cell lines (microscopy) [4]: inhibited the growth of the normal cell lines as well as the cancer cell lines in a concentration-dependent manner and induced apoptosis
- cytotoxicity (MTT) in hESCs [5]: concentration-dependent cytotoxicity

Compound: FITC-iRGD: FITC fluorescently labeled iRGD peptide (CRGDKGPDC)
- cell growth (MTT) in MDA-MB-231 (MDA-MB-231 cell line): only the FITC-conjugated Peptide 5-2C inhibited cell growth

Compound: NYPQRP [Peptide 5-2]
- inhibition of CP2c-DNA binding (DIP assay) (CP2c [6]): specifically inhibited the binding between CP2c and DNA
- CP2c amino acids important for peptide binding (CP2c [7]): E332, R339, R341 and R347 amino acid are important for binding to Peptide 5-2

Compound: dNP2 peptide sequence (KIKKVKKKGRKGSKIKKVKKKGRKGG) linked to the N-terminal Asn residue of Peptide 5-2 [Peptide 5-2D]
- growth inhibition and apoptosis induction of normal control cell lines (IC50 calculation) [8]: did not substantially affect the growth inhibition of the normal control cell lines and the induction of apoptosis
- relative viability (MTT), MCF10A and BEAS2B, compared with Peptide 5-2C [8]: did not affect the growth of the mammary epithelial cell line and the lung epithelial cell line and apoptosis, similarly to Peptide 5-2C
- relative viability (MTT), 293T and HepG2, compared with Peptide 5-2C [9]: inhibited the growth of the human embryonic kidney cancer cell line and liver cancer cell line and efficiently induced apoptosis, similarly to Peptide 5-2C
- relative viability (MTT), breast cancer cell lines, compared with Peptide 5-2C [10]: inhibited the growth of the breast cancer cell lines and efficiently induced apoptosis, similarly to Peptide 5-2C
- relative viability (MTT), HCT116 and HT29, compared with Peptide 5-2C [11]: inhibited the growth of the glioblastoma cell lines and efficiently induced apoptosis, similarly to Peptide 5-2C
- relative viability (MTT), U937, Jurkat, HL60, HEL, compared with Peptide 5-2C [12]: inhibited the growth of the human embryonic kidney cancer cell line and the liver cancer cell line and efficiently induced apoptosis, similarly to Peptide 5-2C
- relative viability (MTT), U343 and U87MG, compared with Peptide 5-2C [13]: inhibited the growth of the glioblastoma cell lines and efficiently induced apoptosis, similarly to Peptide 5-2C
